Measured values from article PMC11024163, “MmcA is an electron conduit that facilitates both intracellular and extracellular electron transport in Methanosarcina acetivorans” (Nature Communications, 2024).

Biological target: T1, MmcA (Methanosarcina acetivorans, UniProt Q8TSY5)
T1 construct: gene MA_0658; mature holo-protein of 476 aa (signal peptide removed), C-terminal 3xFLAG and twin-Strep tags kept; homologous expression in M. acetivorans, anti-Flag purified from Triton X-100 solubilised membranes; seven covalent hemes c
T1 sequence (Q8TSY5 25-500): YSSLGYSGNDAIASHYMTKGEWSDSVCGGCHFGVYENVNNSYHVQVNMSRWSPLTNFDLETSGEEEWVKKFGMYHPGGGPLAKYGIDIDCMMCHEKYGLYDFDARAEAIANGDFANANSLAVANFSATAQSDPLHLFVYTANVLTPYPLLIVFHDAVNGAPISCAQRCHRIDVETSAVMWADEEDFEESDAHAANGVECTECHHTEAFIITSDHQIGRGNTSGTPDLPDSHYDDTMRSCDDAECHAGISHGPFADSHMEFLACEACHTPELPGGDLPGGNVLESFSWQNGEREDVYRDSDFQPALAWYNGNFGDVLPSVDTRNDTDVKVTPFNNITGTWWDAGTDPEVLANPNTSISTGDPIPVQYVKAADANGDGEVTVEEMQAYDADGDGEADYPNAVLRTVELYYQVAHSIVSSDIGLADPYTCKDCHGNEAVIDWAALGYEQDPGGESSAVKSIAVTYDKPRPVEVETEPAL
Test: UV-vis spectral oxidation of dithionite-reduced MmcA
Format: biochemical
Settings: 2.5–3.5 µM MmcA, 50 mM Tris-HCl, 150 mM NaCl, 2% glycerol, pH 7.4, room temperature, anaerobic

Row | SMILES | UV-vis spectral oxidation of dithionite-reduced MmcA (electron acceptor, soluble methanophenazine analogue, 200 µM) | UV-vis spectral oxidation of dithionite-reduced MmcA (electron acceptor in excess)
1 | Oc1ccc2nc3ccccc3nc2c1 [2HP, 2-hydroxyphenazine] | The addition of 2HP instantaneously oxidized MmcA as observed by a shift in its Soret | –
2 | O=C1c2ccc(S(=O)(=O)O)cc2C(=O)c2ccc(S(=O)(=O)O)cc21 [AQDS, anthraquinone-2,6-disulfonate] | – | All three electron acceptors oxidized MmcA rapidly
